Seven compounds from ChEMBL document CHEMBL1201862, “PubChem BioAssay data set” (2004) can be followed below.

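Tested at 5 concentrations; 48 h exposure; 96-well plates; endpoints linearly interpolated, else capped at highest concentration. GI50 is the concentration that inhibits growth by half.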 Activity calls are given as the source filed them. Rule as the data show it: active = GI50 up to about 1.1 µM and inactive = higher. Residues, ends and D or L forms follow the SMILES beside them. *: point of attachment. Fmoc = O=C(OCC1c2ccccc2-c2ccccc21)*; Boc = CC(C)(C)OC(=O)* Where only a bound is given, the exact number is not on record here.

Among the test systems are SW-620; RXF 393; BT-549; COLO 205; NCI-H23; OVCAR-3; SN12C; UO-31; MDA-MB-231; OVCAR-5; NCI-H522; NCI/ADR-RES; MCF7; SF-539; TK-10; Malme-3M; HT-29; HOP-62; PC-3; HOP-92.
Common to all, as to experiment: growth of human tumour cells (NCI), 48 h

With `O=[N+]([O-])c1ccc2c(c1)/C(=N/N=C1c3ccccc3Cc3ccccc31)c1cc([N+](=O)[O-])cc([N+](=O)[O-])c1-2`, the GI50 in the experiment with SW-620 was 3.28 µM (inactive); in the experiment with RXF 393, 2.61 µM (inactive); in the experiment with BT-549 it was 1.52 µM (inactive); in the experiment with COLO 205 it was 3.21 µM (inactive); with NCI-H23, 1.96 µM (inactive); in the experiment on OVCAR-3 it was 1.69 µM (inactive). For the same compound, the GI50 in the experiment on SN12C is 1.67 µM (inactive); with UO-31, 2.05 µM (inactive); in the experiment on MDA-MB-231, 2.62 µM (inactive); in the experiment with OVCAR-5, 2.75 µM (inactive); in the experiment with NCI-H522 it was 1.63 µM (inactive); in the experiment on NCI/ADR-RES, 2.19 µM (inactive). Also, the GI50 with MCF7 is 1.65 µM (inactive); in the experiment on SF-539 it was 2.99 µM (inactive); in the experiment with TK-10 it was 4.29 µM (inactive); in the experiment on Malme-3M, 2.79 µM (inactive); with HT-29 it was 1.97 µM (inactive); in the experiment with HOP-62 it was 3.01 µM (inactive). Besides, the GI50 in the experiment on PC-3 is 2.76 µM (inactive); with HOP-92, 2.17 µM (inactive).
On to `C=C1CC[C@@H]2[C@](C)(COC(=O)CCC(=O)O)CCC[C@@]2(C)[C@@H]1CCC1=CC(=O)OC1`, for which the GI50 with SW-620, in the experiment with RXF 393, in the experiment on BT-549, in the experiment with COLO 205, with NCI-H23 and in the experiment on OVCAR-3 was > 100 µM (inactive) in each case. The GI50 in the experiment with SN12C, in the experiment with UO-31, in the experiment on MDA-MB-231, in the experiment on OVCAR-5, in the experiment with NCI-H522 and in the experiment on NCI/ADR-RES was > 100 µM (inactive) in each case. Besides, the GI50 in the experiment with MCF7, with SF-539, in the experiment on TK-10, in the experiment on Malme-3M, in the experiment on HT-29 and in the experiment with HOP-62 was > 100 µM (inactive) throughout. The GI50 with PC-3 and in the experiment with HOP-92 was > 100 µM (inactive) throughout.
On to `COC(=O)[C@]1(c2cc3ccccc3[nH]2)CC2CN(CC(=O)N(C)OC)C1CC2(OC)OC` (stereo not given in full), for which the GI50 in the experiment on SW-620 is 36.4 µM (inactive); in the experiment with RXF 393, 33.5 µM (inactive); in the experiment with BT-549 it was 23.3 µM (inactive); in the experiment with COLO 205, 83.6 µM (inactive); in the experiment on NCI-H23, 36 µM (inactive); in the experiment with OVCAR-3, 50.6 µM (inactive). The GI50 was 41.2 µM (inactive) with SN12C; 40.2 µM (inactive) in the experiment on UO-31; 31.9 µM (inactive) with MDA-MB-231; 52.2 µM (inactive) in the experiment with OVCAR-5; 15.9 µM (inactive) with NCI-H522; 41.2 µM (inactive) in the experiment with NCI/ADR-RES. The GI50 in the experiment with MCF7 is 32.8 µM (inactive); in the experiment on SF-539, 44.4 µM (inactive); with TK-10, > 100 µM (inactive); in the experiment with Malme-3M, 24.3 µM (inactive); with HT-29 it was 35.2 µM (inactive); in the experiment with HOP-62, 69.3 µM (inactive). Also, the GI50 was 24.2 µM (inactive) with PC-3 and 87.5 µM (inactive) in the experiment with HOP-92.
Take `Cc1csc2nc(-c3cccc([N+](=O)[O-])c3)c(/C=N/N=C(N)N)n12`: the GI50 in the experiment on SW-620 was 1.71 µM (inactive); in the experiment on RXF 393 it was 1.7 µM (inactive); in the experiment on BT-549, 1.1 µM (active); in the experiment on COLO 205 it was 1.78 µM (inactive); in the experiment on NCI-H23, 1.71 µM (inactive); in the experiment with OVCAR-3, 1.62 µM (inactive). For the same compound, the GI50 was 1.69 µM (inactive) with SN12C; 1.39 µM (inactive) in the experiment with UO-31; 1.55 µM (inactive) in the experiment on MDA-MB-231; 1.63 µM (inactive) in the experiment with OVCAR-5; 1.83 µM (inactive) with NCI-H522; 6.27 µM (inactive) in the experiment on NCI/ADR-RES. For the same compound, the GI50 was 1.82 µM (inactive) in the experiment on MCF7; 2.29 µM (inactive) in the experiment with SF-539; 1.78 µM (inactive) in the experiment with TK-10; 1.72 µM (inactive) with Malme-3M; 1.81 µM (inactive) with HT-29; 1.71 µM (inactive) in the experiment on HOP-62. Moreover, the GI50 in the experiment on PC-3 was 1.63 µM (inactive); in the experiment on HOP-92, 0.0968 µM (active).
Take `CCOC(=O)/C=C/CCO[Si](C)(C)C(C)(C)C`: the GI50 in the experiment on SW-620, in the experiment with RXF 393, in the experiment on BT-549, in the experiment with COLO 205, in the experiment with NCI-H23 and in the experiment with OVCAR-3 was > 100 µM (inactive) throughout. The GI50 in the experiment on SN12C, in the experiment with UO-31, in the experiment with MDA-MB-231, in the experiment on OVCAR-5, in the experiment with NCI-H522 and in the experiment with NCI/ADR-RES was > 100 µM (inactive) each time. Moreover, the GI50 in the experiment on MCF7 is 97.5 µM (inactive); in the experiment with SF-539 it was > 100 µM (inactive); in the experiment with TK-10, > 100 µM (inactive); in the experiment on Malme-3M, > 100 µM (inactive); in the experiment on HT-29 it was > 100 µM (inactive); in the experiment on HOP-62 it was > 100 µM (inactive). Also, the GI50 in the experiment with PC-3 and in the experiment on HOP-92 was > 100 µM (inactive) each time.
As to `O=C(O)CSCc1cccc2ccccc12`, the GI50 in the experiment on SW-620, in the experiment on RXF 393, in the experiment with BT-549, in the experiment on COLO 205, in the experiment on NCI-H23 and in the experiment on OVCAR-3 was > 100 µM (inactive) in each case. The GI50 with SN12C, with UO-31, in the experiment on MDA-MB-231, in the experiment on OVCAR-5, with NCI-H522 and in the experiment with NCI/ADR-RES was > 100 µM (inactive) in each case. The GI50 was > 100 µM (inactive) with MCF7; > 100 µM (inactive) in the experiment with SF-539; 48.8 µM (inactive) with TK-10; > 100 µM (inactive) with Malme-3M; > 100 µM (inactive) with HT-29; > 100 µM (inactive) in the experiment with HOP-62. Moreover, the GI50 with PC-3 and in the experiment with HOP-92 was > 100 µM (inactive) throughout.
On to `CC(C)(C)OC(=O)NCCCCC(NC(=O)C(Cc1c[nH]c2ccccc12)NC(=O)OCC1c2ccccc2-c2ccccc21)C(=O)N1CCCC1C(=O)NCC(N)=O` (stereo not given) (Fmoc-WK(Boc)PG-NH2; configuration not given here), for which the GI50 in the experiment on SW-620, in the experiment on RXF 393, in the experiment on BT-549, in the experiment on COLO 205, in the experiment on NCI-H23 and in the experiment on OVCAR-3 was > 100 µM (inactive) in each case. Also, the GI50 in the experiment on SN12C was > 100 µM (inactive); in the experiment on UO-31, > 100 µM (inactive); in the experiment with MDA-MB-231 it was 42.5 µM (inactive); with OVCAR-5, > 100 µM (inactive); in the experiment on NCI-H522 it was > 100 µM (inactive); in the experiment with NCI/ADR-RES, > 100 µM (inactive). For the same compound, the GI50 with MCF7, in the experiment on SF-539, in the experiment on TK-10, with Malme-3M, with HT-29 and in the experiment on HOP-62 was > 100 µM (inactive) each time. Moreover, the GI50 in the experiment on PC-3 and in the experiment with HOP-92 was > 100 µM (inactive) each time.
